The results in this text go back to patent publication US9469615B2, “Quinoxalines and AZA-quinoxalines as CRTH2 receptor modulators” (Merck Sharp & Dohme Corp., priority 2010, dated 2016).

Broadly, the Ki is a dissociation constant, usually derived from enzyme kinetics or from competition with a known ligand.

This experiment addresses T1, hCRTH2 (Homo sapiens, UniProt Q9Y5Y4).
T1 construct: expressed in transfected cells; host or cells: HEK (human embryonic kidney) cells expressing hCRTH2; membrane preparation
T1 sequence (Q9Y5Y4 1-395): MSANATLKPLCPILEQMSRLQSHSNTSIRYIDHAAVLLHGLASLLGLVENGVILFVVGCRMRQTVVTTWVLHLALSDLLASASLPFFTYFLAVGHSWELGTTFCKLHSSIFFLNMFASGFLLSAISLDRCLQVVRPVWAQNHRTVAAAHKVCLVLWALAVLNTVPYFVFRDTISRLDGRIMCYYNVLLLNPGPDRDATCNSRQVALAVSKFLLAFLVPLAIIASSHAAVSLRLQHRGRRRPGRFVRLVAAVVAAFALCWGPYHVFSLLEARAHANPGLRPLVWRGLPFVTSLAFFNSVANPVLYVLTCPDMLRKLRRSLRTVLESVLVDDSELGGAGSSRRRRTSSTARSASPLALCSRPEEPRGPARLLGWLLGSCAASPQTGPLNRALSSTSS
Nature of the experiment: Radioligand binding assay ([3H]PGD2 competition, HEK-hCRTH2 membranes). Conditions: [3H]PGD2 competition, Table B. In short, it runs like this: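 Membranes (8-20 μg protein) from HEK-hCRTH2 cells were incubated 60 min at room temperature with 3.0 nM [3H]PGD2 in 50 mM Tris-HCl pH 7.4, 1 mM EDTA, 2 mM MnCl2, 1% DMSO. Non-specific binding defined with 10 μM PGD2. Bound radioactivity counted after filtration.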
`O=C(O)CCCCc1nc2cc(C(=O)N3CCN(c4ccc(C(F)(F)F)cn4)CC3)ccc2nc1-c1ccc(Cl)cc1` [compound 599, 5-(3-(4-chlorophenyl)-7-(4-(5-yl)piperazine-1-carbonyl)quinoxalin-2-yl)pentanoic acid] displayed a Ki of 0.1 to 2 nM.

On to `O=C(O)CCCCc1nc2cc(C(=O)N3CCN(c4ccccc4C(F)(F)F)CC3)ccc2nc1-c1ccc(Cl)cc1` [compound 600, 5-(3-(4-chlorophenyl)-7-(4-(2-(trifluoromethyl)phenyl)piperazine-1-carbonyl)quinoxalin-2-yl)pentanoic acid], for which the Ki is 0.1 to 2 nM.

The compound `O=C(O)CCCCc1nc2cc(C(=O)N3CCN(c4nccs4)CC3)ccc2nc1-c1ccc(Cl)cc1` [compound 601, 5-(3-(4-chlorophenyl)-7-(4-(thiazol-2-yl)piperazine-1-carbonyl)quinoxalin-2-yl)pentanoic acid] came in with a Ki of 2.1 to 20 nM.

`O=C(O)CCCCc1nc2cc(C(=O)N3CCN(c4nc5ccccc5s4)CC3)ccc2nc1-c1ccc(Cl)cc1` [compound 602, 5-(7-(4-(benzo[d]thiazol-2-yl)piperazine-1-carbonyl)-3-(4-chlorophenyl)quinoxalin-2-yl)pentanoic acid] returned a Ki of 0.1 to 2 nM.

For the compound `O=C(O)CCCCc1nc2cc(C(=O)N3CCc4ccccc4C3)ccc2nc1-c1ccc(Cl)cc1` [compound 603, 5-(3-(4-chlorophenyl)-7-(1,2,3,4-tetrahydroisoquinoline-2-carbonyl)quinoxalin-2-yl)pentanoic acid], the Ki lay within 2.1 to 20 nM.

`N#CC1(c2ccccc2)CCN(C(=O)c2ccc3nc(-c4ccc(Cl)cc4)c(CCCCC(=O)O)nc3c2)C1` (stereo not drawn) [compound 604, 5-(3-(4--chlorophenyl)-7-(3-cyano-3-phenyl-pyrrolidine-1-carbonyl)quinoxalin-2-yl)pentanoic acid]: the Ki fell in the range of 0.1 to 2 nM.

Compound `CS(=O)(=O)N1CCC(NC(=O)c2ccc3nc(-c4ccc(Cl)cc4)c(CCCCC(=O)O)nc3c2)c2ccccc21` (stereo not drawn) [compound 605, 5-(3-(4-chlorophenyl)-7-((1-(methylsulfonyl)-1,2,3,4-tetrahydroquinolin-4-yl)carbamoyl)quinoxalin-2-yl)pentanoic acid] showed a Ki of 0.1 to 2 nM.

`O=C(O)CCCCc1nc2cc(C(=O)N3CC(c4ccc(F)cc4)C3)ccc2nc1-c1ccc(Cl)cc1` [compound 606, 5-(3-(4-chlorophenyl)-7-(3-(4-fluorophenyl)azetidine-1-carbonyl)quinoxalin-2-yl)pentanoic acid]: the inhibition constant Ki was 2.1 to 20 nM.

Consider `O=C(O)CCCCc1nc2cc(C(=O)N3Cc4ccccc4C3)ccc2nc1-c1ccc(Cl)cc1` [compound 607, 5-(3-(4-chlorophenyl)-7-(isoindoline-2-carbonyl)quinoxalin-2-yl)pentanoic acid], for which the inhibitory constant (Ki) was 0.1 to 2 nM.

For `O=C(O)CCCCc1nc2cc(C(=O)N3CCc4c([nH]c5ccccc45)C3)ccc2nc1-c1ccc(Cl)cc1` [compound 608, 5-(3-(4-chlorophenyl)-7-(2,3,4,9-tetrahydro-1H-pyrido[3,4-b]indole-2-carbonyl)quinoxalin-2-yl)pentanoic acid], the Ki was 2.1 to 20 nM.

Turning to `O=C(O)CCCCc1nc2cc(C(=O)N3CCN(c4ccccc4Cl)CC3)ccc2nc1-c1ccc(Cl)cc1` [compound 609, 5-(3-(4-chlorophenyl)-7-(4-(2-chlorophenyl)piperazine-1-carbonyl)quinoxalin-2-yl)pentanoic acid], the Ki lay in the range of 0.1 to 2 nM.

Compound `O=C(O)CCCCc1nc2cc(C(=O)N3CCN(c4cccc(C(F)(F)F)c4)CC3)ccc2nc1-c1ccc(Cl)cc1` [compound 610, 5-(3-(4-chlorophenyl)-7-(4-(3-(trifluoromethyl)phenyl)piperazine-1-carbonyl)quinoxalin-2-yl)pentanoic acid] returned a Ki of 0.1 to 2 nM.

`CCCCN(CCC)C(=O)c1ccc2nc(-c3ccc(Cl)cc3)c(CCCCC(=O)O)nc2c1` [compound 611, 5-(7-(butyl(propyl)carbamoyl)-3-(4-chlorophenyl)quinoxalin-2-yl)pentanoic acid] displayed a Ki of 2.1 to 20 nM.

`O=C(O)CCCCc1nc2cc(C(=O)N[C@H]3CCOc4cc(F)ccc43)ccc2nc1-c1ccc(Cl)cc1` [compound 612, (S)-5-(3-(4-chlorophenyl)-7-((7-fluorochroman-4-yl)carbamoyl)quinoxalin-2-yl)pentanoic acid] returned a Ki of 0.1 to 2 nM.

`O=C(O)CCCCc1nc2cc(C(=O)N3CCO[C@@H](c4ccc(F)cc4)C3)ccc2nc1-c1ccc(Cl)cc1` [compound 613, (S)-5-(3-(4-chlorophenyl)-7-(2-(4-fluorophenyl)morpholine-4-carbonyl)quinoxalin-2-yl)pentanoic acid]: the Ki was in the range of 20.1 to 200 nM.

Consider `O=C(O)CCCCc1nc2cc(C(=O)N3CCO[C@H](c4ccc(F)cc4)C3)ccc2nc1-c1ccc(Cl)cc1` [compound 614, (R)-5-(3-(4-chlorophenyl)-7-(2-(4-fluorophenyl)morpholine-4-carbonyl)quinoxalin-2-yl)pentanoic acid], for which the Ki was in the range of 2.1 to 20 nM.

For `O=C(O)CCCCc1nc2cc(C(=O)N3CCO[C@@H](c4ccc(C(F)(F)F)cc4)C3)ccc2nc1-c1ccc(Cl)cc1` [compound 615, (S)-5-(3-(4-chlorophenyl)-7-(2-(4-(trifluoromethyl)phenyl)morpholine-4-carbonyl)quinoxalin-2-yl)pentanoic acid], the inhibition constant (Ki) fell in the range of 2.1 to 20 nM.

The compound `O=C(O)CCCCc1nc2cc(C(=O)N3CCO[C@H](c4ccc(C(F)(F)F)cc4)C3)ccc2nc1-c1ccc(Cl)cc1` [compound 616, (R)-5-(3-(4-chlorophenyl)-7-(2-(4-(trifluoromethyl)phenyl)morpholine-4-carbonyl)quinoxalin-2-yl)pentanoic acid] had a Ki of 20.1 to 200 nM.

For `O=C(O)CCCCc1nc2cc(C(=O)N[C@@H]3CCCc4ccncc43)ccc2nc1-c1ccc(Cl)cc1` [compound 617], the Ki lay within 0.1 to 2 nM.

Consider `O=C(O)CCCCc1nc2cc(C(=O)N[C@H]3CCCc4ccncc43)ccc2nc1-c1ccc(Cl)cc1` [compound 618, (S)-5-(3-(4-chlorophenyl)-7-((5,6,7,8-tetrahydroisoquinolin-8-yl)carbamoyl)quinoxalin-2-yl)pentanoic acid], for which the Ki lay in the range of 0.1 to 2 nM.

Take `Cc1ccccc1N1CCN(C(=O)c2ccc3nc(-c4ccc(Cl)cc4)c(CCCCC(=O)O)nc3c2)CC1` [compound 619, 5-(3-(4-chlorophenyl)-7-(4-(o-tolyl)piperazine-1-carbonyl)quinoxalin-2-yl)pentanoic acid]: the Ki was 0.1 to 2 nM.

The compound `Cc1cccc(N2CCN(C(=O)c3ccc4nc(-c5ccc(Cl)cc5)c(CCCCC(=O)O)nc4c3)CC2)c1` [compound 620, 5-(3-(4-chlorophenyl)-7-(4-(m-tolyl)piperazine-1-carbonyl)quinoxalin-2-yl)pentanoic acid] came in with a Ki of 0.1 to 2 nM.

Take `Cc1ccc(N2CCN(C(=O)c3ccc4nc(-c5ccc(Cl)cc5)c(CCCCC(=O)O)nc4c3)CC2)cc1C` [compound 621, 5-(3-(4-chlorophenyl)-7-(4-(3,4-dimethylphenyl)piperazine-1-carbonyl)quinoxalin-2-yl)pentanoic acid]: the Ki was in the range of 0.1 to 2 nM.

Consider `COc1ccc(N2CCN(C(=O)c3ccc4nc(-c5ccc(Cl)cc5)c(CCCCC(=O)O)nc4c3)CC2)cc1` [compound 622, 5-(3-(4-chlorophenyl)-7-(4-(4-methoxyphenyl)piperazine-1-carbonyl)quinoxalin-2-yl)pentanoic acid], for which the Ki was 2.1 to 20 nM.

The compound `N#Cc1ccc(N2CCN(C(=O)c3ccc4nc(-c5ccc(Cl)cc5)c(CCCCC(=O)O)nc4c3)CC2)cc1` [compound 623, 5-(3-(4-chlorophenyl)-7-(4-(4-cyanophenyl)piperazine-1-carbonyl)quinoxalin-2-yl)pentanoic acid] registered a Ki of 2.1 to 20 nM.

Turning to `O=C(O)CCCCc1nc2cc(C(=O)N3CCN(c4ccc(Cl)c(Cl)c4)CC3)ccc2nc1-c1ccc(Cl)cc1` [compound 624, 5-(3-(4-chlorophenyl)-7-(4-(3,4-dichlorophenyl)piperazine-1-carbonyl)quinoxalin-2-yl)pentanoic acid], the inhibition constant Ki was 0.1 to 2 nM.

As to `CN(Cc1cccnc1)C(=O)c1ccc2nc(-c3ccc(Cl)cc3)c(CCCCC(=O)O)nc2c1` [compound 625, 5-(3-(4-chlorophenyl)-7-(methyl(pyridin-3-ylmethyl)carbamoyl)quinoxalin-2-yl)pentanoic acid], the inhibition constant (Ki) is 2.1 to 20 nM.

`O=C(O)CCCCc1nc2cc(C(=O)N3CCC(n4c(=O)[nH]c5ccccc54)CC3)ccc2nc1-c1ccc(Cl)cc1` [compound 626, 5-(3-(4-chlorophenyl)-7-(4-(2-oxo-2,3-dihydro-1H-benzo[d]imidazol-1-yl)piperidine-1-carbonyl)quinoxalin-2-yl)pentanoic acid] came in with a Ki of 2.1 to 20 nM.

The compound `Cc1cccc(N2CCN(C(=O)c3ccc4nc(-c5ccc(Cl)cc5)c(CCCCC(=O)O)nc4c3)CC2)c1C` [compound 627, 5-(3-(4-chlorophenyl)-7-(4-(2,3-dimethylphenyl)piperazine-1-carbonyl)quinoxalin-2-yl)pentanoic acid] yielded a Ki of 0.1 to 2 nM.

In the case of `Cc1cccc(C)c1N1CCN(C(=O)c2ccc3nc(-c4ccc(Cl)cc4)c(CCCCC(=O)O)nc3c2)CC1` [compound 628, 5-(3-(4-chlorophenyl)-7-(4-(2,6-dimethylphenyl)piperazine-1-carbonyl)quinoxalin-2-yl)pentanoic acid], the Ki lay within 0.1 to 2 nM.
